Test results published in patent US10927139B2, “Chemically cleavable group” (Tagworks Pharmaceuticals B.V., priority 2012, dated 2021).

Assays:
[1] = Testing the feasibility of the deprotection of TCO compounds upon reaction with tetrazine; details: for 1 h
Protocol: (§1) The feasibility to use the TCO group as a protective group in chemistry was studied by testing the stability of a range of TCO derivatives as model compounds under various conditions, and following the deprotection upon reaction with a tetrazine derivative under these conditions.
Typical Example for Testing the Feasibility of the Deprotection
The TCO stock solution (10 μL 25 mM in acetonitrile; 2.5*10^−7 mol) was added to a solution of the specific condition (100 μL). A solution of 3,6-dimethyl-1,2,4,5-tetrazine (8, 20 μL 25 mM in acetonitrile; 5.0*10^−7 mol) was added, and the mixture was stirred at the specific condition for a certain amount of time. The reaction was monitored by HPLC-MS/PDA analysis and/or GC-MS analysis, and the percentage of deprotection was estimated.
(§2) A) in acetonitrile with 5 equivalents of pyridine per TCO at 20° C.
(§3) B) in acetonitrile with 5 equivalents of DIPEA per TCO at 20° C.
(§4) C) in acetonitrile with 5 equivalents of piperidine per TCO at 20° C.
(§5) D) in acetonitrile with 5 equivalents of n-butylamine per TCO at 20° C.
(§6) E) in acetonitrile with 5 equivalents of 2-mercaptoethanol per TCO at 20° C.
(§7) F) in tetrahydrofuran with 5 equivalents of triphenylphosphine per TCO at 20° C.
(§8) G) in acetonitrile with 5 equivalents of DCC per TCO at 20° C.
(§9) H) in acetonitrile with 5 equivalents of PyBOP per TCO at 20° C.
(§10) I) in acetonitrile with 1 v % of formic acid at 20° C.
(§11) J) in chloroform at 20° C.
(§12) K) in chloroform with 1 v % of formic acid at 20° C.
(§13) L) in chloroform with 1 v % of trifluoroacetic acid at 20° C.
(§14) M) in chloroform with 10 v % of trifluoroacetic acid at 20° C.
(§15) N) in chloroform with 33 v % of trifluoroacetic acid at 20° C.
(§16) Z) in 25% acetonitrile in water at 20° C.

[2] = Testing the stability of a TCO compound under chemical conditions (HPLC-MS/PDA, GC-MS); format: physicochemical; details: for 1 h
Protocol: as §1
Typical Example for Testing the Stability of a TCO Compound
The TCO stock solution (10 μL 25 mM; 2.5*10^−7 mol) was added to a solution of the specific condition (100 μL). The mixture was stirred at the specific condition for a certain amount of time, and then the fate of the TCO compound was monitored by HPLC-MS/PDA analysis and/or GC-MS analysis, and an estimation of its stability was made.
as §2, §3, §4, §5, §6, §7, §8, §9, §10, §11, §12, §13, §14, §15, §16

[3] = Binding of TCO-protected doxorubicin to beads coated with BSA-tetrazine and doxorubicin release (HPLC); details: PBS, 37° C.
Protocol: Tetrazine functionalization of a BSA-coated particle has been described in J. Nucl. Med. 2013, 54, 1989-1995. Briefly, a solution of BSA (bovine serum albumin; 0.7 mg) in PBS was mixed with a 10 mg/mL solution of a bis-pyridyl-tetrazine-NHS derivative in DMF (35 μL, 30 eq. with respect to BSA) and the pH was adjusted to 9.0 with 1 M sodium carbonate buffer. The solution (125 μL total) was incubated at room temperature for 30 min then the unreacted tetrazine was removed from the solution by using a Zeba desalting spin column (7 kDa MW cut-off) pre-washed with PBS. UV measurements confirmed the presence of 12 tetrazine moieties per BSA molecule.
The eluate containing BSA-tetrazine in PBS was added to a 350 μL suspension of polystyrene beads (Polybeads, 0.5 μm, Polysciences) in H2O and the resulting suspension was incubated at +4° C. for 1 h on an end-over-end rotating mixer (10 rpm). After incubation, the suspension of beads coated with BSA-tetrazine was centrifuged at 12,000 rpm for 4 min. The supernatant was carefully removed and the pellet was resuspended in 1.5 mL PBS by using a tip sonicator at low power (Sonics VibraCell, 4×5 sec pulses, 40% of power). The centrifuging-resuspension cycle was repeated 2 times, after which the bead pellet was resuspended in 200 μL PBS and reacted with 7 nmol of TCO-protected doxorubicin (TCO-3-Doxorubin, 1 mM in DMSO).
After 5 min incubation at 37° C. in a thermomixer (350 rpm), the beads were removed by centrifugation and the supernatant was analyzed by HPLC on an Agilent Techologies system (1100 series) equipped with a fluorescence detector with λhex=485 nm and λem=590 nm. The sample was loaded on an Eclipse XDB-C18 column (5 μm, 4.6×150 mm^2, Agilent) which was eluted isocratically with 30% (v/v) acetonitrile in H2O containing 0.1% TFA (v/v) at 1 mL/min. HPLC analysis of the supernatant confirmed that ca. 75% of TCO-doxorubicin was bound to the beads.
The bead pellet was resuspended in 1.5 mL PBS and centrifuged twice to eliminate unbound TCO-doxorubicin. Subsequently, the beads were resuspended in 400 μL PBS and incubated at 37° C. At various times, aliquots of the supernatant were analyzed by HPLC. The chromatographic profiles (FIG. 2) show release of free doxorubicin (Rt=6.2 min) from the beads with time (>45% after 3 h; complete within 24 h).

[4] = tetrazine 8; Z) in 25% acetonitrile in water at 20° C.
[5] = Z) in 25% acetonitrile in water at 20° C.
[6] = tetrazine 8; A) in acetonitrile with 5 equivalents of pyridine per TCO at 20° C.
[7] = tetrazine 8; B) in acetonitrile with 5 equivalents of DIPEA per TCO at 20° C.
[8] = tetrazine 8; G) in acetonitrile with 5 equivalents of DCC per TCO at 20° C.
[9] = tetrazine 8; I) in acetonitrile with 1 v % of formic acid at 20° C.
[10] = tetrazine 8; J) in chloroform at 20° C.
[11] = A) in acetonitrile with 5 equivalents of pyridine per TCO at 20° C.
[12] = B) in acetonitrile with 5 equivalents of DIPEA per TCO at 20° C.
[13] = G) in acetonitrile with 5 equivalents of DCC per TCO at 20° C.
[14] = I) in acetonitrile with 1 v % of formic acid at 20° C.

SMILES	Stability of TCO [2, 5]	Stability of TCO [2, 11]	Stability of TCO [2, 12]	Stability of TCO [2, 13]	Stability of TCO [2, 14]	Deprotection (%) [1, 4] [%]	Deprotection (%) [1, 6] [%]	Deprotection (%) [1, 7] [%]	Deprotection (%) [1, 8] [%]	Deprotection (%) [1, 9] [%]	also measured
O=C(NCc1cccc2ccccc12)OC1/C=C/CCCCC1 (stereo not shown)	stable stable stable stable stable stable stable stable stable stable stable stable stable stable	stable stable stable stable stable stable stable stable stable stable stable stable stable stable	stable stable stable stable stable stable stable stable stable stable stable stable stable stable	stable stable stable stable stable stable stable stable stable stable stable stable stable stable	stable stable stable stable stable stable stable stable stable stable stable stable stable stable	85	87	58	74	93	Deprotection (%) ([1]; tetrazine 8; C) in acetonitrile with 5 equivalents of piperidine per TCO at 20° C.): 48%; Deprotection (%) ([1]; tetrazine 8; D) in acetonitrile with 5 equivalents of n-butylamine per TCO at 20° C.): 47%; Deprotection (%) ([1]; tetrazine 8; E) in acetonitrile with 5 equivalents of 2-mercaptoethanol per TCO at 20° C.): 67%; Deprotection (%) ([1]; tetrazine 8; F) in tetrahydrofuran with 5 equivalents of triphenylphosphine per TCO at 20° C.): 75%; Deprotection (%) ([1]; tetrazine 8; H) in acetonitrile with 5 equivalents of PyBOP per TCO at 20° C.): 74%; Deprotection (%) [1, 10]: 73%; Deprotection (%) ([1]; tetrazine 8; K) in chloroform with 1 v % of formic acid at 20° C.): 98%; Deprotection (%) ([1]; tetrazine 8; L) in chloroform with 1 v % of trifluoroacetic acid at 20° C.): 99%; Deprotection (%) ([1]; tetrazine 8; M) in chloroform with 10 v % of trifluoroacetic acid at 20° C.): 99%; Stability of TCO ([2]; C) in acetonitrile with 5 equivalents of piperidine per TCO at 20° C.): stable stable stable stable stable stable stable stable stable stable stable stable stable stable; Stability of TCO ([2]; D) in acetonitrile with 5 equivalents of n-butylamine per TCO at 20° C.): stable stable stable stable stable stable stable stable stable stable stable stable stable stable; Stability of TCO ([2]; E) in acetonitrile with 5 equivalents of 2-mercaptoethanol per TCO at 20° C.): stable stable stable stable stable stable stable stable stable stable stable stable stable stable; Stability of TCO ([2]; F) in tetrahydrofuran with 5 equivalents of triphenylphosphine per TCO at 20° C.): stable stable stable stable stable stable stable stable stable stable stable stable stable stable; Stability of TCO ([2]; H) in acetonitrile with 5 equivalents of PyBOP per TCO at 20° C.): stable stable stable stable stable stable stable stable stable stable stable stable stable stable; Stability of TCO ([2]; J) in chloroform at 20° C.): stable stable stable stable stable stable stable stable stable stable stable stable stable stable; Stability of TCO ([2]; K) in chloroform with 1 v % of formic acid at 20° C.): stable stable stable stable stable stable stable stable stable stable stable stable stable stable; Stability of TCO ([2]; L) in chloroform with 1 v % of trifluoroacetic acid at 20° C.): stable stable stable stable stable stable stable stable stable stable stable stable stable stable; Stability of TCO ([2]; M) in chloroform with 10 v % of trifluoroacetic acid at 20° C.): stable stable stable stable stable stable stable stable stable stable stable stable stable stable
C1=C/C(OCc2ccccc2)CCCCC/1 (stereo not shown)	stable stable	–	–	–	–	54	–	–	–	–	Deprotection (%) [1, 10]: 70%; Stability of TCO ([2]; J) in chloroform at 20° C.): stable stable
Cc1cc(C)cc(NC(=O)OC2/C=C/CCCCC2)c1 (stereo not shown) [drawing 126]	–	stable stable stable stable	stable stable stable stable	stable stable stable stable	stable stable stable stable	–	14	4	61	97	–
COc1cccc2c1C(=O)c1c(O)c3c(c(O)c1C2=O)C[C@@](O)(C(=O)CO)C[C@@H]3O[C@H]1C[C@H](N)[C@H](O)[C@H](C)O1 [doxorubicin, reference compound]	–	–	–	–	–	–	–	–	–	–	time to complete release of free doxorubicin from the beads [3]: ≤ 24 h; release of free doxorubicin from the beads ([3]; after 3 h): > 45%
O=C(Cc1ccccc1)C(C(=O)OC1/C=C/CCCCC1)c1ccccc1 (stereo not shown)	stable stable	–	–	–	–	70	–	–	–	–	Deprotection (%) [1, 10]: 95%; Stability of TCO ([2]; J) in chloroform at 20° C.): stable stable
Cc1cc(C)cc(NC(=O)OC2/C=C/CCCCC2)c1 (stereo not shown) [drawing 128]	–	stable stable stable stable	stable stable stable stable	stable stable stable stable	stable stable stable stable	–	55	39	91	97	–

Second part, led by results:

Stability of TCO [2, 5]	Stability of TCO [2, 11]	Stability of TCO [2, 12]	Stability of TCO [2, 13]	Stability of TCO [2, 14]	SMILES	Deprotection (%) [1, 4] [%]	Deprotection (%) [1, 6] [%]	Deprotection (%) [1, 7] [%]	Deprotection (%) [1, 8] [%]	Deprotection (%) [1, 9] [%]	also measured
stable	–	–	–	–	O=C(OC1/C=C/CCCCC1)c1ccc([N+](=O)[O-])cc1 (stereo not shown) [drawing 118]	66	–	–	–	–	–
stable stable stable stable stable	stable stable stable stable stable	stable stable stable stable stable	stable stable stable stable stable	stable stable stable stable stable	C1=C/C(Oc2ccccc2)CCCCC/1 (stereo not shown) [drawing 120]	87	42	92	80	92	–
stable	–	–	–	–	C1=C/C(Oc2ccccc2)CCCCC/1 (stereo not shown) [drawing 122]	72	–	–	–	–	–
stable	stable	–	stable	stable	O=C(OC1/C=C/CCCCC1)c1ccc([N+](=O)[O-])cc1 (stereo not shown) [drawing 116]	80	68	83	89	95	Stability of TCO: hydrolysis [2, 12]: ~2%
stable	stable	–	stable	stable	O=C(Oc1ccc([N+](=O)[O-])cc1)OC1/C=C/CCCCC1 (stereo not shown)	70	64	90	72	97	Stability of TCO: hydrolysis [2, 12]: 19%
